Data reported in BindingDB's records for doi:10.7270/Q26M3571 (Nmmlsc, 2007).

These compounds were tested against T1, N-formyl peptide receptor 2 (Homo sapiens, UniProt P25090) (assay: human FPR2 ligand displacement potency – cell-based, flow cytometry, Ki from IC50, selectivity assay for FPR1 ligand SAR project, dose response (AID 723)).
T1 sequence (P25090 whole entry): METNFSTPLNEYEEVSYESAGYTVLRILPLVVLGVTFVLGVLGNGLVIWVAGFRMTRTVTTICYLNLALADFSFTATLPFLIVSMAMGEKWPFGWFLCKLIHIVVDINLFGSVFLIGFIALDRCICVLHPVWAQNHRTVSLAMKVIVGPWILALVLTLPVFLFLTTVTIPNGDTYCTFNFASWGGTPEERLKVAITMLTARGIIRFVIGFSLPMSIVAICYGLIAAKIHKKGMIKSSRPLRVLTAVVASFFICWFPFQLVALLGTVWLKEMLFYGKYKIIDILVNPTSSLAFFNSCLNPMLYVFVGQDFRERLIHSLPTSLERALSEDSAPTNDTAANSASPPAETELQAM

Ki, > 40.3 µM:
CC(=O)C1C(=O)C(=O)N(CCc2c(C)[nH]c3ccccc23)C1c1cccc(F)c1 (stereo unspecified)
COc1ccc(C(=O)C2C(=O)C(=O)N(CCc3c[nH]c4ccccc34)C2c2ccc(C(C)C)cc2)cc1 (stereo unspecified)
COc1ccc(C2C(C(=O)c3cccs3)C(=O)C(=O)N2CCCn2ccnc2)cc1 (stereo unspecified) [1-(3-imidazol-1-ylpropyl)-2-(4-methoxyphenyl)-4-oxidanyl-3-thiophen-2-ylcarbonyl-2H-pyrrol-5-one]
COc1cc(C2C(C(C)=O)C(=O)C(=O)N2c2ccc(Br)cc2)ccc1O (stereo unspecified) [1-(4-bromophenyl)-3-ethanoyl-2-(3-methoxy-4-oxidanyl-phenyl)-4-oxidanyl-2H-pyrrol-5-one]
COc1ccc(C2C(C(=O)c3cccs3)C(=O)C(=O)N2CCN2CCOCC2)c(OC)c1 (stereo unspecified) [2-(2,4-dimethoxyphenyl)-1-(2-morpholin-4-ylethyl)-4-oxidanyl-3-thiophen-2-ylcarbonyl-2H-pyrrol-5-one]
COc1ccc(C2C(C(=O)c3ccco3)C(=O)C(=O)N2CCCN2CCOCC2)cc1OC (stereo unspecified) [2-(3,4-dimethoxyphenyl)-3-(furan-2-carbonyl)-4-hydroxy-1-(3-morpholin-4-ylpropyl)-2H-pyrrol-5-one]
O=C1C(=O)N(CCc2ccccc2)C(c2ccc(Cl)cc2)C1C(=O)c1cccs1 (stereo unspecified) [2-(4-chlorophenyl)-4-hydroxy-1-(2-phenylethyl)-3-(thiophene-2-carbonyl)-2H-pyrrol-5-one]
COc1cc(C2C(C(=O)c3cc4ccccc4o3)C(=O)C(=O)N2CCN(C)C)ccc1O (stereo unspecified) [3-(1-benzofuran-2-carbonyl)-1-[2-(dimethylamino)ethyl]-4-hydroxy-2-(4-hydroxy-3-methoxyphenyl)-2H-pyrrol-5-one]
COc1ccc(C2C(C(=O)c3cc4ccccc4o3)C(=O)C(=O)N2CCN(C)C)cc1OC (stereo unspecified) [3-(1-benzofuran-2-carbonyl)-2-(3,4-dimethoxyphenyl)-1-[2-(dimethylamino)ethyl]-4-hydroxy-2H-pyrrol-5-one]
O=C1C(=O)N(CCCn2ccnc2)C(c2cccnc2)C1C(=O)c1cc2ccccc2o1 (stereo unspecified) [3-(1-benzofuran-2-carbonyl)-4-hydroxy-1-(3-imidazol-1-ylpropyl)-2-pyridin-3-yl-2H-pyrrol-5-one]
O=C1C(=O)N(CCCN2CCOCC2)C(c2cccnc2)C1C(=O)c1cc2ccccc2o1 (stereo unspecified) [3-(1-benzofuran-2-carbonyl)-4-hydroxy-1-(3-morpholin-4-ylpropyl)-2-pyridin-3-yl-2H-pyrrol-5-one]
O=C1C(=O)N(CCCn2ccnc2)C(c2cccnc2)C1C(=O)c1ccco1 (stereo unspecified) [3-(furan-2-carbonyl)-4-hydroxy-1-(3-imidazol-1-ylpropyl)-2-pyridin-3-yl-2H-pyrrol-5-one]
COc1ccc(OC)c(C2C(C(=O)c3ccc(C)cc3)C(=O)C(=O)N2CCC(=O)O)c1 (stereo unspecified) [3-[(3E)-2-(2,5-dimethoxyphenyl)-3-[(4-methylphenyl)-oxidanyl-methylidene]-4,5-bis(oxidanylidene)pyrrolidin-1-yl]propanoic acid]
O=C(O)CCCN1C(=O)C(=O)C(C(=O)c2ccccc2)C1/C=C/c1ccccc1 (stereo unspecified) [4-[(4E)-2,3-bis(oxidanylidene)-4-[oxidanyl(phenyl)methylidene]-5-[(E)-2-phenylethenyl]pyrrolidin-1-yl]butanoic acid]
COc1ccc(C2C(C(=O)c3ccco3)C(=O)C(=O)N2CCN2CCOCC2)c(OC)c1 (stereo unspecified) [5-(2,4-dimethoxyphenyl)-4-(furan-2-carbonyl)-3-hydroxy-1-(2-morpholinoethyl)-1H-pyrrol-2(5H)-one]
COCCN1C(=O)C(=O)C(C(=O)c2ccccc2)C1c1ccc(C(C)C)cc1 (stereo unspecified) [(4E)-1-(2-methoxyethyl)-4-[oxidanyl(phenyl)methylidene]-5-(4-propan-2-ylphenyl)pyrrolidine-2,3-dione]
COCCN1C(=O)C(=O)C(C(=O)c2ccccc2)C1c1ccccc1OC (stereo unspecified) [(4E)-1-(2-methoxyethyl)-5-(2-methoxyphenyl)-4-[oxidanyl(phenyl)methylidene]pyrrolidine-2,3-dione]
COc1ccc(OC)c(C2C(C(=O)c3ccccc3)C(=O)C(=O)N2c2ccc(C)c(Cl)c2)c1 (stereo unspecified) [(4E)-1-(3-chloranyl-4-methyl-phenyl)-5-(2,5-dimethoxyphenyl)-4-[oxidanyl(phenyl)methylidene]pyrrolidine-2,3-dione]
COc1ccc(C2C(C(=O)c3ccccc3)C(=O)C(=O)N2c2cccc(Cl)c2)c(OC)c1 (stereo unspecified) [(4E)-1-(3-chlorophenyl)-5-(2,4-dimethoxyphenyl)-4-[hydroxy(phenyl)methylene]pyrrolidine-2,3-quinone]
COCCCN1C(=O)C(=O)C(C(=O)c2ccccc2)C1c1ccc(C(C)C)cc1 (stereo unspecified) [(4E)-1-(3-methoxypropyl)-4-[oxidanyl(phenyl)methylidene]-5-(4-propan-2-ylphenyl)pyrrolidine-2,3-dione]
Cc1ccc(C(=O)C2C(=O)C(=O)N(c3nnc(C)s3)C2c2ccc(C(C)C)cc2)cc1 (stereo unspecified) [(4E)-4-[(4-methylphenyl)-oxidanyl-methylidene]-1-(5-methyl-1,3,4-thiadiazol-2-yl)-5-(4-propan-2-ylphenyl)pyrrolidine-2,3-dione]
CC(C)c1ccc(C2C(C(=O)c3ccccc3)C(=O)C(=O)N2Cc2cccnc2)cc1 (stereo unspecified) [(4E)-4-[hydroxy(phenyl)methylene]-5-p-cumenyl-1-(3-pyridylmethyl)pyrrolidine-2,3-quinone]
COc1ccc(C2C(C(=O)c3ccccc3)C(=O)C(=O)N2CCCn2ccnc2)c(OC)c1 (stereo unspecified) [(4E)-5-(2,4-dimethoxyphenyl)-1-(3-imidazol-1-ylpropyl)-4-[oxidanyl(phenyl)methylidene]pyrrolidine-2,3-dione]
COc1ccc(C2C(C(=O)c3ccc(C)cc3)C(=O)C(=O)N2Cc2cccnc2)c(OC)c1 (stereo unspecified) [(4E)-5-(2,4-dimethoxyphenyl)-4-[(4-methylphenyl)-oxidanyl-methylidene]-1-(pyridin-3-ylmethyl)pyrrolidine-2,3-dione]
COCCN1C(=O)C(=O)C(C(=O)c2ccccc2)C1c1cc(OC)ccc1OC (stereo unspecified) [(4E)-5-(2,5-dimethoxyphenyl)-1-(2-methoxyethyl)-4-[oxidanyl(phenyl)methylidene]pyrrolidine-2,3-dione]
COc1ccc(OC)c(C2C(C(=O)c3ccccc3)C(=O)C(=O)N2c2cccnc2)c1 (stereo unspecified) [(4E)-5-(2,5-dimethoxyphenyl)-4-[hydroxy(phenyl)methylene]-1-(3-pyridyl)pyrrolidine-2,3-quinone]
COCCCN1C(=O)C(=O)C(C(=O)c2ccccc2)C1c1ccc(O)c(OC)c1 (stereo unspecified) [(4E)-5-(3-methoxy-4-oxidanyl-phenyl)-1-(3-methoxypropyl)-4-[oxidanyl(phenyl)methylidene]pyrrolidine-2,3-dione]
O=C1C(=O)N(CN2CCOCC2)C(c2ccc(Br)cc2)C1C(=O)c1ccccc1 (stereo unspecified) [(4E)-5-(4-bromophenyl)-1-(morpholin-4-ylmethyl)-4-[oxidanyl(phenyl)methylidene]pyrrolidine-2,3-dione]
O=C1NC(c2ccc(Br)cc2)C(C(=O)c2ccc(Cl)cc2)C1=O (stereo unspecified) [(4E)-5-(4-bromophenyl)-4-[(4-chlorophenyl)-hydroxy-methylene]pyrrolidine-2,3-quinone]
Cc1ccc(C(=O)C2C(=O)C(=O)N(Cc3cccnc3)C2c2ccc(Br)cc2)cc1 (stereo unspecified) [(4E)-5-(4-bromophenyl)-4-[(4-methylphenyl)-oxidanyl-methylidene]-1-(pyridin-3-ylmethyl)pyrrolidine-2,3-dione]
Cc1ccc(N2C(=O)C(=O)C(C(=O)c3ccccc3)C2c2cccc(F)c2)cc1Br (stereo unspecified) [(4Z)-1-(3-bromanyl-4-methyl-phenyl)-5-(3-fluorophenyl)-4-[oxidanyl(phenyl)methylidene]pyrrolidine-2,3-dione]
CCCCCCN1C(=O)C(=O)C(C(=O)c2ccccc2)C1c1ccc(O)c(OC)c1 (stereo unspecified) [(4Z)-1-hexyl-5-(3-methoxy-4-oxidanyl-phenyl)-4-[oxidanyl(phenyl)methylidene]pyrrolidine-2,3-dione]
COc1ccc(C(=O)C2C(=O)C(=O)NC2c2ccc(OC)cc2OC)cc1 (stereo unspecified) [(4Z)-5-(2,4-dimethoxyphenyl)-4-[(4-methoxyphenyl)-oxidanyl-methylidene]pyrrolidine-2,3-dione]
CCCCCCOc1cccc(N2C(=O)C(=O)C(C(=O)c3ccccc3)C2c2cccc(F)c2)c1 (stereo unspecified) [(4Z)-5-(3-fluorophenyl)-1-(3-hexoxyphenyl)-4-[hydroxy(phenyl)methylene]pyrrolidine-2,3-quinone]
O=C1C(=O)N(c2ccc(F)cc2)C(c2ccc(Br)cc2)C1C(=O)c1ccccc1 (stereo unspecified) [(4Z)-5-(4-bromophenyl)-1-(4-fluorophenyl)-4-[hydroxy(phenyl)methylene]pyrrolidine-2,3-quinone]
N#Cc1c(N=C(CC(=O)c2ccccc2)C(=O)O)sc2c1CCC2 [(Z)-2-[(3-cyano-5,6-dihydro-4H-cyclopenta[b]thiophen-2-yl)amino]-4-keto-4-phenyl-but-2-enoic acid]
